Non-standard residues stand in square brackets, D forms with d. Residues, ends and D or L forms follow the SMILES beside them. *: point of attachment. Succinimide(1-Et,3-yl) = CCN1C(=O)CC(*)C1=O

The subject of one data set is diet-induced obese mice. Description: Feeding study in diet-induced obese mice (food intake, body weight). The class given is in vivo. Summed up: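 Male DIO mice (Nmur1−/−, Nmur2−/− or double-knockout lines, C57BL/6 or mixed background) on 60% kcal high-fat diet, dosed i.p. or s.c. ~30 min before dark onset. Food intake measured at 2, 18, 42, 66 and 90 h after dark onset; body weight at 18, 42, 66 and 90 h.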

For a further data set, the target named is T1, mouse NMUR1-ATG (Mus musculus, UniProt O55040).
T1 sequence (O55040 1-428): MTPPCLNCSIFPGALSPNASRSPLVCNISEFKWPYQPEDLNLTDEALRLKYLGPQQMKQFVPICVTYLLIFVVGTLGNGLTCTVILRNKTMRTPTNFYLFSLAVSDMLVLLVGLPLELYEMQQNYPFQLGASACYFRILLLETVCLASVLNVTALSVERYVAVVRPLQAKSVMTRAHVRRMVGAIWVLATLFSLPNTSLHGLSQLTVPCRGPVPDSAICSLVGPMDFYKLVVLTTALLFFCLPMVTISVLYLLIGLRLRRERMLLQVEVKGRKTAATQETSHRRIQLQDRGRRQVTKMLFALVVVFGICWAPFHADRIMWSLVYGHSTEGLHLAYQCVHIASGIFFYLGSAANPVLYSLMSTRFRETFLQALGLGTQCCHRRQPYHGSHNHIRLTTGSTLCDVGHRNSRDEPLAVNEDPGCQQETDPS
Description: FLIPR calcium mobilization assay, mouse NMUR1-ATG. The class given is cell-based. The arrangement: expressed in transfected cells; host or cells: FLP-In CHO or HEK-293 FLP-In cells (pcDNA5). The source says: (§1) Human, mouse or rat cDNAs encoding NMUR1 or NMUR2 (as described in Howard et al. Nature 406: 70-74 (2000) were subcloned in pcDNA5 (Invitrogen) and transfected into FLP-In CHO cells and HEK-293 FLP-In cells purchased from Invitrogen (Carlsbad, Calif.) using lipofectamine (Invitrogen). The Flp-In system allows integration and expression of a particular gene of interest at a specific genomic location utilizing the Flp recombinase from yeast. The transfected cells were selected by growth in medium containing 200 μg/mL hygromycin (Invitrogen). Populations were frozen at early passage numbers, and these stocks were used for further studies. Stable clones that expressed the mRNAs were identified functionally by FLIPR as well as by RT-PCR. […] Two different rodent NMUR1 cell lines were thus generated: one with the codon as predicted from the genomic databases and another cell line with an engineered methionine (ATG) as the start codon. Additionally, stable cell lines expressing the human receptors were generated in HEK-293/aeq17 cells which stably express the aequorin gene under the CMV promoter. The human NMUR2 cDNA was cloned into pcDNA3.1 and human NMUR1 was subcloned into pIRES-puro (Clontech, Mountain View, Calif.), after transfection cells were selected in media containing G418 and either hygromycin (NMUR2) or puromycin (NMUR1).
(§2) The NMU receptors signal primarily through Gαq/11 proteins; therefore calcium mobilization assays can be utilized for functional activity.
(§3) Stable cell lines expressing human and or rodent NMUR1 or human NMUR2 receptors were plated at a density of 12,000 cells per well overnight on poly-lysine coated 384-well black-walled plates. The following day, the media was removed from the plates and the cells were subsequently loaded with Fluo-3 (Molecular Probes), a calcium sensitive dye, diluted in FLIPR buffer (1× Hank's buffered saline containing 20 mM HEPES, 0.1% BSA, 2.5 mM probenecid (Sigma) and 1.6 mM TR40). All reagents are from Invitrogen unless otherwise noted. Peptide stocks were resuspended in DMSO at a stock concentration of 2 mM and diluted in FLIPR buffer on the day of the experiment to a 4 μM working stock solution.
(§4) After a 90 minute incubation at room-temperature, cell plates were loaded onto a FLIPR (Molecular Devices) to monitor cellular fluorescence (excitation=488 nm; emission=540 nm) before and after compound/peptide addition. Eight to twelve point dose responses were tested on NMUR-expressing cell lines using FLIPR with 1 μM peptide as the highest dose. The response after peptide addition was taken as the maximum fluorescence units minus the fluorescence immediately prior to stimulation for each well. EC50 values were calculated using GraphPad Prism (San Diego, Calif.) software.
(§5) In vitro responses of Neuromedin U receptor agonists (NMU1 to NMU25) in the FLIPR assay for human (Table 3), mouse (Table 4) and rat (Table 5) NMUR1 and NMUR2. EC50s are reported in nM values. Percent activity refers to the maximum response at 1 μM compared to the hNMU-25 response at the same concentration. NT=not tested.

A further data set has as its target T2, rat NMUR1-TTG (Rattus norvegicus, UniProt Q9JJI5).
T2 sequence (Q9JJI5 1-425): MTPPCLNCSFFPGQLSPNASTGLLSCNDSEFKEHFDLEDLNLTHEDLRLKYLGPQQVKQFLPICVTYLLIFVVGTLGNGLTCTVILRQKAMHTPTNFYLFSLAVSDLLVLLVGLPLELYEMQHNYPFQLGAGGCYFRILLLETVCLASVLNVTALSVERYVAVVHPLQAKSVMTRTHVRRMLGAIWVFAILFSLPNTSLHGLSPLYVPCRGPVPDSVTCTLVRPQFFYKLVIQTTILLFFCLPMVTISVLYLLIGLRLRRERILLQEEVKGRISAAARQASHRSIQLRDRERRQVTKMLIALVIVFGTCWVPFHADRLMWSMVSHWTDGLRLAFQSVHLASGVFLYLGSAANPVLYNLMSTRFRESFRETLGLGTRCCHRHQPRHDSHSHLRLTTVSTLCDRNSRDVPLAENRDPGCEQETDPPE
As to the kind of experiment: FLIPR calcium mobilization assay, rat NMUR1-TTG. The class given is cell-based. The arrangement: expressed in transfected cells; host or cells: FLP-In CHO or HEK-293 FLP-In cells (pcDNA5).
From the text: as §1, §2, §3, §4, §5

The mark [1] stands for this setting: maximum response at 1 μM compared to hNMU-25, rat NMUR1-TTG.

As to `CCN1C(=O)CC(SC[C@H](NC(C)=O)C(=O)N[C@@H](Cc2ccccc2)C(=O)N[C@@H](CCCNC(=N)N)C(=O)N[C@H](C(=O)N[C@@H](CC(=O)O)C(=O)N[C@@H](CCC(=O)O)C(=O)N[C@@H](CCC(=O)O)C(=O)N[C@@H](Cc2ccccc2)C(=O)N[C@@H](CCC(N)=O)C(=O)N[C@@H](CO)C(=O)N2CCC[C@H]2C(=O)N[C@@H](Cc2ccccc2)C(=O)N[C@@H](C)C(=O)N[C@@H](CO)C(=O)N[C@@H](CCC(N)=O)C(=O)N[C@@H](CO)C(=O)N[C@@H](CCCNC(=N)N)C(=O)NCC(=O)N[C@@H](Cc2ccc(O)cc2)C(=O)N[C@@H](Cc2ccccc2)C(=O)N[C@H](C)C(=O)N[C@@H](Cc2c[nH]c3ccccc23)C(=O)N[C@@H](CCCNC(=N)N)C(=O)N2CCC[C@H]2C(=O)N[C@@H](CCCNC(=N)N)C(=O)N[C@@H](CC(N)=O)C(N)=O)C(C)C)C1=O` (stereo partly drawn) [NMU13] (Ac-C(Succinimide(1-Et,3-yl))FRVDEEFQSPFASQSRGYF[dA]WRPRN-NH2), in the data set on diet-induced obese mice (acute peripheral administration, wild-type mice), the food intake result was “significantly reduced food intake”. Moreover, the “% Activity” value was 96% on mouse NMUR1-ATG (functional, mouse R1-ATG, relative to native hNMU responses); 98.6% on mouse NMUR1-ATG (maximum response at 1 μM compared to hNMU-25, mouse NMUR1-ATG); 94% at rat NMUR1-TTG (functional, rat R1-TTG, relative to native hNMU responses); 94.6% on rat NMUR1-TTG (setting [1]).

With “Ac-C2FQSPFASQSRGYFLFRPRN-CONH2 ({Ac-C(PEG 40 kDa)}-FQSPFASQSRGYFLFRPRN-NH2; not fully specified; printed as Ac-C2FQSPFASQSRGYFLFRPRN-CONH2) [NMU20, C2 = Cys(PEG)240 kDa]”, the “extension of serum half-life by PEGylation” value with diet-induced obese mice was “three days”. For the same compound, the “Body weight (BW) change (in grams) {relative to vehicle} Day 1” value in the data set on diet-induced obese mice (10 mg/kg, Day 1) is −2.2 grams. Moreover, the “% Food intake (FI) reductions Day 1” value in the data set on diet-induced obese mice (10 mg/kg, Day 1, based on vehicle responses) came out at 67%. For the same compound, the “Body weight (BW) change (in grams) {relative to vehicle} Day 2” value in the data set on diet-induced obese mice (10 mg/kg, Day 2) is recorded as −1.1 grams. The “% Food intake (FI) reductions Day 2” value with diet-induced obese mice (10 mg/kg, Day 2, based on vehicle responses) stood at 65%. Also, the “Body weight (BW) change (in grams) {relative to vehicle} Day 3” value in the data set with diet-induced obese mice (10 mg/kg, Day 3) is on record as “+0.3 grams”. The “% Food intake (FI) reductions Day 3” value with diet-induced obese mice (10 mg/kg, Day 3, based on vehicle responses) stood at 23%. Further, the EC50 is 0.0127 µM in the data set with mouse NMUR1-ATG (FLIPR, mouse NMUR1-ATG) and 0.0244 µM with rat NMUR1-TTG (FLIPR, rat NMUR1-TTG). Besides, the “% Activity” value in the data set with rat NMUR1-TTG (setting [1]) came to 93.8%.

The record behind these values is US20100075907A1, “NEUROMEDIN U RECEPTOR AGONISTS AND USES THEREOF” (priority 2006, published 2010).
